Patent publication US20240140991A1, “ANTIBIOTIC NATURAL PRODUCT ANALOGUES” (THE QUEEN'S UNIVERSITY OF BELFAST, priority 2021, published 2024)
≈ marks a conversion by molar mass, not a printed value. Read-outs that look alike come from different tables or passages of the source. Positions of bridges follow the written chain, without caps; N, C: chain ends. Non-standard residues stand in square brackets, D forms with d. Residues, ends and D or L forms follow the SMILES beside them. *: point of attachment. Octanoyl(7-Me) = CC(C)CCCCCC(=O)*; dOrn = NCCC[C@@H](N)C(=O)O; Orn = NCCC[C@H](N)C(=O)O

Experiments:
E. coli ATCC 25922 MCR-1 = assay type: cell-based, Escherichia coli; details: E. coli ATCC 25922 MCR-1 (colistin resistant)
Experimental: (§1) Minimum inhibitory concentration (MIC) was determined by broth microdilution according to CLSI guidelines. Blood agar plates were inoculated with glycerol stocks of Escherichia coli ATCC 25922, E. coli ATCC 25922 MCR-1, E. coli MCR-1 (clinical isolate from Utrecht Medical Center, NL), E. coli EQAS MCR-2 (clinical isolate from Wageningen University and Research, NL), Kiebsielia pneumoniae ATCC 11228, K. pneumoniae ATCC 13883, K. pneumonia 2048 (clinical isolate from Vrije Universiteit Amsterdam Medical Center, NL), K. pneumonia JS-123 (clinical isolate from Utrecht Medical Center, NL), Acinetobacter baumannii ATCC 17961, A. baumannil ATCC 17978, A. baumannii 2018-006 (clinical isolate from Rijksinstituut voor Volksgezondheid en Milieu, NL), A. baumannii MDR (clinical isolate from Vrije Universiteit Amsterdam Medical Center, NL), Pseudomonas aeruginosa ATCC 27853, P. aeruginosa PAO1, P. aeruginosa NRZ-03961 (Reference strain from Das Nationale Referenzzentrum für gramnegative Krankenhauserreger, DE), P. aeruginosa M-120 (clinical isolate from Leiden University Medical Center, NL) and Staphylococcus aureus USA300 (clinical isolate from Texas Children's Hospitalm, USA). E. coli 25922 MCR1 was grown on LB agar supplemented with kanamycin. The inoculated agar plates were then incubated for 16 hours at 37° C. Individually grown colonies were subsequently used to inoculate 3 mL aliquots of TSB that were then incubated at 37° C. with shaking at 220 rpm. In parallel, the compounds to be assessed were serially diluted with Mueller-Hinton broth (MHB) in polypropylene 96-well plates (50 μL in each well). Once the OD600 of the bacterial suspensions reached 0.5, the bacteria were diluted with MHB (final concentration 2×10^5 CFU mL^−1) and added to the microplates containing the test compounds (50 μL to each well, final volume: 100 μL). The well-plates were sealed with an adhesive membrane and after 16 hours of incubation at 37° C. with shaking at 220 rpm the wells were visually inspected for bacterial growth. MIC values were defined as the lowest concentration of the compound that prevented visible growth of bacteria.
(§2) In the table above, “MCR” denotes that one of the MCR family of genes, which confers colistin resistance, is present in the bacterial strain. Thus, E. coli ATCC 25922 MCR-1, E. coli MCR-1 and E. coli EQAS MCR-2 are each colistin resistant. […] Therefore, laterocidamide may overcome some of the challenges faced due to antibiotic resistance.

E. coli MCR-1 = assay type: cell-based, Escherichia coli; details: E. coli MCR-1 clinical isolate (colistin resistant)
Experimental: as §1, §2

A. baumannii MDR = assay type: cell-based, Acinetobacter baumannii; details: A. baumannii MDR clinical isolate
Experimental: as §1

P. aeruginosa M-120 = assay type: cell-based, Pseudomonas aeruginosa
Experimental: as §1

P. aeruginosa PAO1 = assay type: cell-based, Pseudomonas aeruginosa
Experimental: as §1

P. aeruginosa NRZ-03961 = assay type: cell-based, Pseudomonas aeruginosa
Experimental: as §1

K. pneumoniae 2048 = assay type: cell-based, Klebsiella pneumoniae
Experimental: as §1

K. pneumoniae JS-123 = assay type: cell-based, Klebsiella pneumoniae
Experimental: as §1

K. pneumoniae ATCC 11228 = assay type: cell-based, Klebsiella pneumoniae
Experimental: as §1

K. pneumoniae ATCC 13883 = assay type: cell-based, Klebsiella pneumoniae
Experimental: as §1

[1] = system: Pseudomonas aeruginosa ATCC 27853; assay type: cell-based
Method in brief: (§3)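 Broth microdilution in MHB per CLSI; inoculum 2×10^5 CFU mL^−1 from log-phase TSB cultures at OD600 0.5. Plates incubated 16 hours at 37° C with shaking at 220 rpm. MIC is the lowest concentration preventing visible growth.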

[2] = system: Staphylococcus aureus USA300; assay type: cell-based
Method in brief: as §3

[3] = system: Escherichia coli ATCC 25922; assay type: cell-based
Method in brief: as §3

[4] = system: Acinetobacter baumannii ATCC 17961; assay type: cell-based
Method in brief: as §3

E. coli EQAS MCR-2 = assay type: cell-based, Escherichia coli; details: E. coli EQAS MCR-2 clinical isolate (colistin resistant)
Experimental: as §1, §2

A. baumannii 2018-006 = assay type: cell-based, Acinetobacter baumannii
Experimental: as §1

A. baumannii ATCC 17978 = assay type: cell-based, Acinetobacter baumannii
Experimental: as §1

HepG2 cells = experiment: Cytotoxicity MTT assay; details: HepG2, 128 μg/mL, 24 h
Experimental: In addition to a single vehicle control, compounds (diluted from DMSO stock) were added to each well to obtain in a final 128 μg/mL concentration (max. final DMSO concentration 0.5%) for all compounds except for oritavancin which was administered at 50 μM. Incubation was done for 24 h at 37° C., 7% CO2. After the incubation, MTT was added to each well at a final concentration of 0.40 mg/mL. The plates were then incubated for 2 h at 37° C., 7% CO2. Medium was carefully removed via suction, and purple formazan crystals were resuspended in 100 μL DMSO. Absorbance was read at 570 nm using a Clariostar plate reader. The data was then analysed with GraphPad Prism software. Technical triplicates for each condition were used, along with biological duplicates.

## CC[C@H](C)[C@@H]1NC(=O)[C@@H](NC(=O)[C@H](Cc2c[nH]c3ccccc23)NC(=O)[C@@H](CCCN)NC(=O)CNC(=O)[C@H](CCCN)NC(=O)[C@@H](CCCN)NC(=O)[C@@H](Cc2c[nH]c3ccccc23)NC(=O)[C@@H](Cc2ccc(O)cc2)NC(=O)[C@@H](CO)NC(=O)CCCCCC(C)C)COC(=O)CNC(=O)CNC(=O)[C@H](CC(N)=O)NC1=O [Ser9-Laterocidine] ({Octanoyl(7-Me)}-[dS][dY][dW][dOrn][Orn]G[dOrn]WSINGG; ester 9-C)
E. coli ATCC 25922 MCR-1
  Minimum inhibitory concentration (MIC): 0.5 µg/mL (≈ 0.314 µM)
E. coli MCR-1
  Minimum inhibitory concentration (MIC): 0.5 µg/mL (≈ 0.314 µM)
A. baumannii MDR
  Minimum inhibitory concentration (MIC): 2 µg/mL (≈ 1.26 µM)

## colistin [reference compound]
P. aeruginosa M-120; P. aeruginosa M-120 clinical isolate
  Minimum inhibitory concentration (MIC): 1 µg/mL
P. aeruginosa PAO1; P. aeruginosa PAO1
  Minimum inhibitory concentration (MIC): ≤0.5 µg/mL
P. aeruginosa NRZ-03961; P. aeruginosa NRZ-03961
  Minimum inhibitory concentration (MIC): <0.5 µg/mL
K. pneumoniae 2048; K. pneumoniae 2048 clinical isolate
  Minimum inhibitory concentration (MIC): 2 µg/mL
K. pneumoniae JS-123; K. pneumoniae JS-123 clinical isolate
  Minimum inhibitory concentration (MIC): ≤0.5 µg/mL
K. pneumoniae ATCC 11228; K. pneumoniae ATCC 11228
  Minimum inhibitory concentration (MIC): ≤0.5 µg/mL
K. pneumoniae ATCC 13883; K. pneumoniae ATCC 13883
  Minimum inhibitory concentration (MIC): 1 µg/mL
[1]; P. aeruginosa ATCC 27853
  Minimum inhibitory concentration (MIC): 1 µg/mL
[2]; S. aureus USA300 (Gram-positive)
  Minimum inhibitory concentration (MIC): >64 µg/mL
[3]; E. coli ATCC 25922
  Minimum inhibitory concentration (MIC): 0.25 to 0.5 µg/mL
[4]; A. baumannii ATCC 17961
  Minimum inhibitory concentration (MIC): ≤0.5 µg/mL
E. coli ATCC 25922 MCR-1
  Minimum inhibitory concentration (MIC): 2 to 4 µg/mL
E. coli EQAS MCR-2
  Minimum inhibitory concentration (MIC): 2 to 4 µg/mL
E. coli MCR-1
  Minimum inhibitory concentration (MIC): 2 to 4 µg/mL
A. baumannii 2018-006; A. baumannii 2018-006 clinical isolate
  Minimum inhibitory concentration (MIC): ≤0.5 µg/mL
A. baumannii MDR
  Minimum inhibitory concentration (MIC): ≤0.5 µg/mL
A. baumannii ATCC 17978; A. baumannii ATCC 17978
  Minimum inhibitory concentration (MIC): ≤0.5 µg/mL

## CC[C@H](C)[C@@H]1NC(=O)[C@@H](NC(=O)[C@H](Cc2c[nH]c3ccccc23)NC(=O)[C@@H](CCCN)NC(=O)CNC(=O)[C@H](CCCN)NC(=O)[C@@H](CCCN)NC(=O)[C@@H](Cc2c[nH]c3ccccc23)NC(=O)[C@@H](Cc2ccc(O)cc2)NC(=O)[C@@H](CO)NC(=O)CCCCCC(C)C)[C@@H](C)OC(=O)CNC(=O)CNC(=O)[C@H](CC(N)=O)NC1=O [Laterocidine, laterocidine, reference compound] ({Octanoyl(7-Me)}-[dS][dY][dW][dOrn][Orn]G[dOrn]WTINGG; ester 9-C)
HepG2 cells
  cytotoxicity / cell viability: completely non-toxic
E. coli ATCC 25922 MCR-1
  Minimum inhibitory concentration (MIC): 2 µg/mL (≈ 1.25 µM)
E. coli EQAS MCR-2
  Minimum inhibitory concentration (MIC): 1 µg/mL (≈ 0.623 µM)
E. coli MCR-1
  Minimum inhibitory concentration (MIC): 0.5 µg/mL (≈ 0.312 µM)
A. baumannii MDR
  Minimum inhibitory concentration (MIC): 1 µg/mL (≈ 0.623 µM)

## CCC(C)CCC(=O)N[C@H](CC(N)=O)C(=O)N[C@H](Cc1ccc(O)cc1)C(=O)N[C@H](Cc1c[nH]c2ccccc12)C(=O)N[C@H](CCCN)C(=O)N[C@@H](CCCN)C(=O)NCC(=O)N[C@H](CCCN)C(=O)N[C@@H](Cc1c[nH]c2ccccc12)C(=O)N[C@H]1COC(=O)[C@H](CO)NC(=O)CNC(=O)[C@H]([C@@H](C)CC)NC1=O (single isomer, unassigned) [Ser9-Brevicidine]
P. aeruginosa M-120; M-120
  Minimum inhibitory concentration (MIC): 2 µg/mL (≈ 1.33 µM)
P. aeruginosa PAO1; PAO1
  Minimum inhibitory concentration (MIC): 2 to 4 µg/mL
P. aeruginosa NRZ-03961; NRZ-03961
  Minimum inhibitory concentration (MIC): 4 µg/mL (≈ 2.66 µM)
K. pneumoniae 2048; 2048
  Minimum inhibitory concentration (MIC): 4 µg/mL (≈ 2.66 µM)
K. pneumoniae JS-123; JS-123
  Minimum inhibitory concentration (MIC): 2 µg/mL (≈ 1.33 µM)
K. pneumoniae ATCC 11228; ATCC 11228
  Minimum inhibitory concentration (MIC): 2 µg/mL (≈ 1.33 µM)
K. pneumoniae ATCC 13883; ATCC 13883
  Minimum inhibitory concentration (MIC): 2 µg/mL (≈ 1.33 µM)
[1]; ATCC 27853
  Minimum inhibitory concentration (MIC): 1 µg/mL (≈ 0.664 µM)
[2]; USA300
  Minimum inhibitory concentration (MIC): >64 µg/mL
[3]; ATCC 25922
  Minimum inhibitory concentration (MIC): 4 µg/mL (≈ 2.66 µM)
[4]; ATCC 17961
  Minimum inhibitory concentration (MIC): 0.5 to 1 µg/mL
E. coli ATCC 25922 MCR-1
  Minimum inhibitory concentration (MIC): 4 µg/mL (≈ 2.66 µM)
E. coli EQAS MCR-2
  Minimum inhibitory concentration (MIC): 4 to 8 µg/mL
E. coli MCR-1
  Minimum inhibitory concentration (MIC): 2 µg/mL (≈ 1.33 µM)
A. baumannii 2018-006; 2018-006
  Minimum inhibitory concentration (MIC): 2 µg/mL (≈ 1.33 µM)
A. baumannii MDR
  Minimum inhibitory concentration (MIC): 1 to 2 µg/mL
A. baumannii ATCC 17978; ATCC 17978
  Minimum inhibitory concentration (MIC): 2 µg/mL (≈ 1.33 µM)
